Assay results reported in US20060069132A1, “Azolecarboxamide herbicides” (priority 2004, published 2006).

What was measured:
Experiment in all cases: Test J Compounds 2 and 6 alone and in combination with other herbicides, foliage spray
Details in all cases: applied alone
[1] = test system: large crabgrass (DIGSA); assay type: in vivo, Digitaria sanguinalis; parameters: key to DIGSA Obsd.: 0 = no effect, 100 = complete control
Excerpt: (§1) Colby's Equation was used to calculate the expected additive herbicidal effect of the mixtures of Compound 6 with Harmony® Extra (i.e. a 2:1 mixture by weight of thifensulfuron-methyl and tribenuron-methyl). Colby's Equation (Colby, S. R. “Calculating Synergistic and Antagonistic Responses of Herbicide Combinations,” Weeds, 15(1), pp 20-22 (1967)) calculates the expected additive effect of herbicidal mixtures, and for two active ingredients is of the form: Pa+b=Pa+Pb−(PaPb/100) wherein • Pa+b is the percentage effect of the mixture expected from additive contribution of the individual components, • Pa is the observed percentage effect of the first active ingredient at the same use rate as in the mixture, and • Pb is the observed percentage effect of the second active ingredient at the same use rate as in the mixture.
(§2) Seeds of test plants consisting of barnyardgrass (ECHCG; Echinochloa crus-galli (L.) Beauv.), blackgrass (ALOMY; Alopecurus myosuroides Huds.), Surinam grass (BRADC; Urochloa decumbens (Staph) R. D. Webster, previously named Brachiaria decumbens Stapf), cocklebur (XANST, Xanthium strumarium L.), corn (ZEAMD, Zea mays L. cv. ‘Pioneer 33G26’), large crabgrass (DIGSA, Digitaria sanguinalis (L.) Scop.), giant foxtail (SETFA, Setaria faberi Herrm.), lambsquarters (CHEAL, Chenopodium album L.), morningglory (IPOCO, Ipomoea coccinea L.), pigweed (AMARE, Amaranthus retroflexus L.), velvetleaf (ABUTH, Abutilon theophrasti Medik.) wheat (TRZAS, Triticum aestivum L. cv. ‘Recital’) and wild oat (AVEFA, Avena fatua L.) were planted in Redi-Earth® planting medium (Scotts Company, 14111 Scottslawn Road, Marysville, Ohio 43041) comprising spaghnum peat moss and vermiculite. Seeds of small-seeded species were planted about 1 cm deep; larger seeds were planted about 2.5 cm deep. Plants were grown in a greenhouse using supplemental lighting to maintain a photoperiod of about 14 hours; daytime and nighttime temperatures were about 24-30° C. and 22-25° C., respectively. Balanced fertilizer was applied through the watering system. The plants were grown for 7 to 11 days so that at time of treatment the plants ranged in height from 2 to 18 cm (1- to 4-leaf stage). Treatments consisted of Compounds 2 and 6 (technical material), atrazine (90DF), terbacil (Sinbar® 80DF), hexazinone (Velpar® 75WG), diuron (Karmex® 80WP) and paraquat (Gramoxone® Extra, 37%) alone and in combination, suspended or dissolved in an aqueous solvent comprising a nonionic surfactant and applied as a foliage spray using a volume of 541 L/ha. Each treatment was triply replicated. […] Treated plants and controls were maintained in the greenhouse and watered as needed with care to not wet the foliage for the first 24 hours after treatment. The effects on the plants 15 days after treatment were visually compared to untreated controls. Plant response ratings, listed in Table J as the means of the thee replicates, are based on a scale of 0 to 100 where 0 is no effect and 100 is complete control. Also listed in Table J are the expected effects for the mixtures calculated using Colby's Equation.

[2] = test system: Surinam grass (BRADC); assay type: in vivo, Urochloa decumbens; parameters: key: 0 = no effect, 100 = complete control
Excerpt: as §1, §2

[3] = test system: pigweed (AMARE); assay type: in vivo, Amaranthus retroflexus; parameters: key: 0 = no effect, 100 = complete control
Excerpt: as §1, §2

[4] = test system: lambsquarters (CHEAL); assay type: in vivo, Chenopodium album; parameters: key: % herbicidal effect (observed)
Excerpt: as §1, §2

[5] = test system: wild oat (AVEFA); assay type: in vivo, Avena fatua; parameters: key: 0 = no effect, 100 = complete control
Excerpt: as §1, §2

[6] = test system: giant foxtail (SETFA); assay type: in vivo, Setaria faberi; parameters: key: 0 = no effect, 100 = complete control
Excerpt: as §2

[7] = test system: barnyardgrass (ECHCG); assay type: in vivo, Echinochloa crus-galli; parameters: key: percentage herbicidal effect (observed)
Excerpt: as §1, §2

[8] = test system: cocklebur (XANST); assay type: in vivo, Xanthium strumarium; parameters: key: 0 = no effect, 100 = complete control
Excerpt: as §2

[9] = test system: blackgrass (ALOMY); assay type: in vivo, Alopecurus myosuroides; parameters: key: 0 = no effect, 100 = complete control
Excerpt: as §1, §2

[10] = test system: morningglory (IPOCO); assay type: in vivo, Ipomoea coccinea; parameters: key: 0 = no effect, 100 = complete control
Excerpt: as §2

[11] = test system: wheat (TRZAS); assay type: in vivo, Triticum aestivum; parameters: key: 0 = no effect, 100 = complete control
Excerpt: as §1, §2

[12] = test system: velvetleaf (ABUTH); assay type: in vivo, Abutilon theophrasti; parameters: key: 0 = no effect, 100 = complete control
Excerpt: as §1, §2

[13] = test system: corn (ZEAMD); assay type: in vivo, Zea mays; parameters: key: percentage herbicidal effect (observed)
Excerpt: as §1, §2

In the case of `CCNc1nc(Cl)nc(NC(C)C)n1` [atrazine], the “DIGSA Obsd.” value ([1]; 125 g a.i./ha) is reported as 5, the “DIGSA Obsd.” value ([1]; 250 g a.i./ha) is reported as 5 and the “BRADC Obsd.” value ([2]; 125 g a.i./ha) is reported as 15. The “BRADC Obsd.” value ([2]; 250 g a.i./ha) was 5, the “AMARE Obsd.” value ([3]; 125 g a.i./ha) was 38 and the “AMARE Obsd.” value ([3]; 250 g a.i./ha) was 75. The “CHEAL Obsd.” value ([4]; 125 g a.i./ha) was 67, the “CHEAL Obsd.” value ([4]; 250 g a.i./ha) was 95 and the “AVEFA Obsd.” value ([5]; 125 g a.i./ha) was 13. The “AVEFA Obsd.” value ([5]; 250 g a.i./ha) was 28, the “SETFA Obsd.” value ([6]; 125 g a.i./ha) was 0 and the “SETFA Obsd.” value ([6]; 250 g a.i./ha) was 18. The “ECHCG Obsd.” value ([7]; 125 g a.i./ha) was 20, the “ECHCG Obsd.” value ([7]; 250 g a.i./ha) was 23 and the “XANST Obsd.” value ([8]; 125 g a.i./ha) was 45. The “XANST Obsd.” value ([8]; 250 g a.i./ha) was 72, the “ALOMY Obsd.” value ([9]; 125 g a.i./ha) was 3 and the “ALOMY Obsd.” value ([9]; 250 g a.i./ha) was 28. The “IPOCO Obsd.” value ([10]; 125 g a.i./ha) was 52, the “IPOCO Obsd.” value ([10]; 250 g a.i./ha) was 75 and the “TRZAS Obsd.” value ([11]; 125 g a.i./ha) was 3. The “TRZAS Obsd.” value ([11]; 250 g a.i./ha) was 8, the “ABUTH Obsd.” value ([12]; 125 g a.i./ha) was 15 and the “ABUTH Obsd.” value ([12]; 250 g a.i./ha) was 25. For the same compound, the “ZEAMD Obsd.” value ([13]; 125 g a.i./ha) was 3 and the “ZEAMD Obsd.” value ([13]; 250 g a.i./ha) was 12.
With `C[n+]1ccc(-c2cc[n+](C)cc2)cc1` [paraquat] the “DIGSA Obsd.” value ([1]; 31 g a.i./ha) was 78, the “DIGSA Obsd.” value ([1]; 62 g a.i./ha) was 85 and the “BRADC Obsd.” value ([2]; 31 g a.i./ha) was 67. For the same compound, the “BRADC Obsd.” value ([2]; 62 g a.i./ha) was 95, the “AMARE Obsd.” value ([3]; 31 g a.i./ha) was 90 and the “AMARE Obsd.” value ([3]; 62 g a.i./ha) was 100. For the same compound, the “CHEAL Obsd.” value ([4]; 31 g a.i./ha) was 95, the “CHEAL Obsd.” value ([4]; 62 g a.i./ha) was 100 and the “AVEFA Obsd.” value ([5]; 31 g a.i./ha) was 42. For the same compound, the “AVEFA Obsd.” value ([5]; 62 g a.i./ha) was 63, the “SETFA Obsd.” value ([6]; 31 g a.i./ha) was 72 and the “SETFA Obsd.” value ([6]; 62 g a.i./ha) was 88. For the same compound, the “ECHCG Obsd.” value ([7]; 31 g a.i./ha) was 45, the “ECHCG Obsd.” value ([7]; 62 g a.i./ha) was 77 and the “XANST Obsd.” value ([8]; 31 g a.i./ha) was 100. The “XANST Obsd.” value ([8]; 62 g a.i./ha) was 87, the “ALOMY Obsd.” value ([9]; 31 g a.i./ha) was 60 and the “ALOMY Obsd.” value ([9]; 62 g a.i./ha) was 73. For the same compound, the “IPOCO Obsd.” value ([10]; 31 g a.i./ha) was 58, the “IPOCO Obsd.” value ([10]; 62 g a.i./ha) was 90 and the “TRZAS Obsd.” value ([11]; 31 g a.i./ha) was 35. The “TRZAS Obsd.” value ([11]; 62 g a.i./ha) was 83, the “ABUTH Obsd.” value ([12]; 31 g a.i./ha) was 70 and the “ABUTH Obsd.” value ([12]; 62 g a.i./ha) was 92. The “ZEAMD Obsd.” value ([13]; 31 g a.i./ha) was 43 and the “ZEAMD Obsd.” value ([13]; 62 g a.i./ha) was 63.
